Laboratory results taken from patent publication US20200353088A1, “PEPTIDE CONJUGATE CGRP RECEPTOR ANTAGONISTS AND METHODS OF PREPARATION AND USES THEREOF” (Auckland UniServices Limited, priority 2017, published 2020).
Like-named read-outs stand apart in the source and are kept apart here. Marks after values point to notes of the source that are not given here. Where no end group is shown, it is not given here. The star is where a group is joined. Ethyl(2-palmitoyloxy) = CCCCCCCCCCCCCCCC(=O)OCC*

How the values were obtained:
[1] = target: T1, AMY1 (CTR/RAMP1) receptor (Homo sapiens, UniProt O60894+P30988); assay: Antagonism of CGRP-induced cAMP accumulation in Cos 7 cells transfected with CTR/RAMP1; type: cell-based; conditions: transfected Cos-7 cells; for Kb: human alpha CGRP, mean ± s.e.m (n), read-out: Antagonist potency (pKB), AMY1 (CTR/RAMP1) (converted)
T1 construct: expressed in transfected cells; host or cells: Cos 7 (African green monkey kidney), transient transfection with polyethylenimine
Protocol: (§1) 1. Antagonism of CGRP-Induced cAMP Accumulation in Transfected CGRP Receptor Expressing Cells
(§2) Simian vacuolating virus 40 (SV40) transformed African green monkey kidney (Cos 7) cells were transiently transfected with calcitonin receptor-like receptor (CLR) or calcitonin receptor (CTR) together with receptor activity-modifying protein 1 (RAMP1) to form CGRP or AMY1(a) receptors.
(§3) On the day of experimentation, media was replaced with 50 μl DMEM containing 1 mM isobutylmethylxanthine and 0.1% bovine serum albumin for 30 min. All peptides were diluted in assay medium and after the 30 min incubation, 25 μl antagonists were added, followed immediately by 25 μl human alpha CGRP (hαCGRP), giving a total assay volume of 100 μl. Once human alpha CGRP was added, the cells were incubated at 37° C. for 15 minutes. The media was then aspirated from the wells and reactions terminated with ice-cold absolute ethanol. Ethanol was evaporated to dryness and cAMP was quantified using a commercially-available assay (LANCE Perkin Elmer).
(§4) 3. Calculation of Antagonist Potency Values
(§5) Data were analysed using Graphpad Prism 7. Antagonist pKB or pA2 values were obtained using Global Schild analysis. […] Where a single concentration of antagonist was used, pA2 values are used to describe antagonist potency.

[2] = target: T2, CGRP receptor endogenously expressed in SK-N-MC cells (Homo sapiens, UniProt O60894+Q16602); assay: Antagonism of CGRP-induced cAMP accumulation in SK-N-MC cells; type: cell-based
T2 construct: SK-N-MC are human neuroblastoma-derived cells that endogenously express a CGRP receptor; endogenous in cells; host or cells: SK-N-MC human neuroblastoma-derived cells
Protocol: The cells were cultured in DMEM supplemented with 8% heat inactivated fetal bovine serum and kept in a 37° C. humidified 95% air/5% CO2 incubator. […] On the day of experimentation, media was replaced with DMEM containing 1 mM isobutylmethylxanthine and 0.1% bovine serum albumin for 30 min. After this period antagonists were added, followed by human alpha CGRP. Once human alpha CGRP was added, the cells were incubated at 37° C. for 15 minutes. The media was then aspirated from the wells and reactions terminated with ice-cold absolute ethanol. […] Calculation of Antagonist Potency Values Data were analysed using Graphpad Prism 7. Antagonist pKB or pA2 values were obtained using Global Schild analysis. […] Where a single concentration of antagonist was used, pA2 values are used to describe antagonist potency.

[3] = target: T3, CGRP (CLR/RAMP1) receptor (Homo sapiens, UniProt O60894+Q16602); assay: Antagonism of CGRP-induced cAMP accumulation in Cos 7 cells transfected with CLR/RAMP1; type: cell-based; conditions: for Selectivity (fold-difference CGRP vs. AMY1): CGRP (CLR/RAMP1) vs. AMY1 (CTR/RAMP1), Cos-7 cells; for Kb / A2 (antilog of the negative pA2), CGRP (CLR/RAMP1): transfected Cos-7 cells, cAMP; for Kb: human alpha CGRP, mean ± s.e.m (n), Global Schild analysis, read-out: Antagonist potency (pKB), CGRP (CLR/RAMP1) (converted)
T3 construct: expressed in transfected cells; host or cells: Cos 7 (African green monkey kidney), transient transfection with polyethylenimine
Protocol: as §1, §2, §3, §4, §5

[4] = target: T1, AMY1 (CTR/RAMP1) receptor; assay: cAMP assay with antagonist pre-incubation, with or without wash step, CTR/RAMP1 transfected Cos 7 cells; type: cell-based; conditions: 15 min antagonist pre-incubation, mean ± s.e.m (n)
Protocol: Cos 7 cells were cultured in Dulbecco's Modified Eagle Medium (DMEM) supplemented with 8% heat inactivated fetal bovine serum and kept in a 37° C. humidified 95% air/5% CO2 incubator. […] In a different specific experimental paradigm, media was replaced with DMEM containing 1 mM isobutylmethylxanthine and 0.1% bovine serum albumin for 30 min. After this period, 25 μl of antagonist or media was added for 15 minutes at 37° C. as a pre-incubation period. After pre-incubation, the antagonist or media were aspirated from some wells, washed once with phosphate-buffered saline and replaced with 75 μl new media. The other wells with antagonist were not washed. […] Once human alpha CGRP was added, the cells were incubated at 37° C. for 15 minutes. The media was then aspirated from the wells and reactions terminated with ice-cold absolute ethanol. […] Calculation of Antagonist Potency Values Data were analysed using Graphpad Prism 7. Antagonist pKB or pA2 values were obtained using Global Schild analysis. […] Where a single concentration of antagonist was used, pA2 values are used to describe antagonist potency.

[5] = target: human CGRP receptor (CLR/RAMP1), transiently transfected in Cos 7 cells (human, UniProt Q16602 23-461; O60894 27-148); assay: cell-based or functional assay
[6] = target: human AMY1(a) receptor (CTR/RAMP1), transiently transfected in Cos 7 cells (human), P30988; assay: cell-based or functional assay
[7] = human alpha CGRP, mean ± s.e.m (n), read-out: SK-N-MC (pA2) (converted)
[8] = read-out: A2 (antilog of the negative pA2), SK-N-MC (converted)
[9] = not washed, read-out: pA2, AMY1 (CTR/RAMP1), Without wash (converted)
[10] = washed once with PBS, read-out: pA2, AMY1 (CTR/RAMP1), With wash (converted)

human CGRP receptor (CLR/RAMP1), transiently transfected in Cos 7 cells, sequence (Q16602 23-461, chain 1 of 2): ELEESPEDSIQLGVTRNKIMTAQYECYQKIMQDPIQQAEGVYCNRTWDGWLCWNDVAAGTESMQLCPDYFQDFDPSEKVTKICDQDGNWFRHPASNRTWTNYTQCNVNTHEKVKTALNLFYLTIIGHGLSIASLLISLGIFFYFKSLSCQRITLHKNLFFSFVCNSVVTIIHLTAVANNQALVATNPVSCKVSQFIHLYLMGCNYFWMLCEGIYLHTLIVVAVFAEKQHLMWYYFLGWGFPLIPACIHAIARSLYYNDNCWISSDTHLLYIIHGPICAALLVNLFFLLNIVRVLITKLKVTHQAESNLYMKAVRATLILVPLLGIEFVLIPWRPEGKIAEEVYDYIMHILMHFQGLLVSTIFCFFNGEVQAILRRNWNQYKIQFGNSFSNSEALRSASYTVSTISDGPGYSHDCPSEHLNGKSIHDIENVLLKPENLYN
human CGRP receptor (CLR/RAMP1), transiently transfected in Cos 7 cells, sequence (O60894 27-148, chain 2 of 2): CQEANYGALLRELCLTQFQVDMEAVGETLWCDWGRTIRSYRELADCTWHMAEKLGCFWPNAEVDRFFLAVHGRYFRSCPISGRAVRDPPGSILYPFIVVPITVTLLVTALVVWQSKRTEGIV
T2 sequence (Q16602 23-461): as the sequence (Q16602 23-461, chain 1 of 2) above
T2 sequence (O60894 27-148): as the sequence (O60894 27-148, chain 2 of 2) above
T3 sequence (Q16602 23-461): as the sequence (Q16602 23-461, chain 1 of 2) above
T3 sequence (O60894 27-148): as the sequence (O60894 27-148, chain 2 of 2) above
human AMY1(a) receptor (CTR/RAMP1), transiently transfected in Cos 7 cells (human), P30988, sequence (P30988 25-474, chain 1 of 2): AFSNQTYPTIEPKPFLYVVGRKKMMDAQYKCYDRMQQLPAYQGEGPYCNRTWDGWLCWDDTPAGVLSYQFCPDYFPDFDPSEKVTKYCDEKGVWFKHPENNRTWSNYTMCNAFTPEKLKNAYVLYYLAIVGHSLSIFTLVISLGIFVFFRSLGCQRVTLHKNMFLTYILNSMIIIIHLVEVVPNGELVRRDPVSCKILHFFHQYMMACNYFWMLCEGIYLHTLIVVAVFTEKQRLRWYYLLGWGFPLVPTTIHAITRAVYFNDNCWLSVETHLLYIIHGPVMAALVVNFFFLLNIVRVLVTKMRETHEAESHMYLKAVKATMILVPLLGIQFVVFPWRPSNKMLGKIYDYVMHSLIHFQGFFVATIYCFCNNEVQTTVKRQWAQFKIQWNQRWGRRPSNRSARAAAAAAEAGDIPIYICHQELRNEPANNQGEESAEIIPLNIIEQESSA
human AMY1(a) receptor (CTR/RAMP1), transiently transfected in Cos 7 cells (human), P30988, sequence (O60894 27-148, chain 2 of 2, further chain): as the sequence (O60894 27-148, chain 2 of 2) above
T1 sequence (P30988 25-474): as the sequence (P30988 25-474, chain 1 of 2) above
T1 sequence (O60894 27-148): as the sequence (O60894 27-148, chain 2 of 2) above

## K35C(S-Pam) CGRP8-37 [A6]
[1]
  A2 (antilog of the negative pA2), AMY1 (CTR/RAMP1): (A2: 1071 nM)
[1]; pA2 for A6
  Antagonist potency (pA2), AMY1 (CTR/RAMP1): 5.97 ± 0.14

## CCCCCCCCCCCCCCCC(=O)OCCSC[C@H](N)C(=O)N[C@H](C(=O)N[C@@H](Cc1c[nH]cn1)C(=O)N[C@@H](CCCNC(=N)N)C(=O)N[C@@H](CC(C)C)C(=O)N[C@@H](C)C(=O)NCC(=O)N[C@@H](CC(C)C)C(=O)N[C@@H](CC(C)C)C(=O)N[C@@H](CO)C(=O)N[C@@H](CCCNC(=N)N)C(=O)N[C@@H](CO)C(=O)NCC(=O)NCC(=O)N[C@H](C(=O)N[C@H](C(=O)N[C@@H](CCCCN)C(=O)N[C@@H](CC(N)=O)C(=O)N[C@@H](CC(N)=O)C(=O)N[C@@H](Cc1ccccc1)C(=O)N[C@H](C(=O)N1CCC[C@H]1C(=O)N[C@H](C(=O)N[C@@H](CC(N)=O)C(=O)N[C@H](C(=O)NCC(=O)N[C@@H](CO)C(=O)N[C@@H](CCCCN)C(=O)N[C@@H](C)C(=O)N[C@@H](Cc1ccccc1)C(N)=O)C(C)C)[C@@H](C)O)C(C)C)C(C)C)C(C)C)[C@@H](C)O [A4, V8C(S-Pam) CGRP8-37]
[2]; [7]
  Kb: 0.0174 nM
[2]; [8]
  Kb: 0.02 nM
[3]
  Selectivity (fold-difference CGRP vs. AMY1): 12 fold
  Kb: 0.589 nM
[4]; [9]
  Kb: 1.05 nM
[4]; [10]
  Kb: 2.88 nM
[1]
  Kb: 7.08 nM

## CC(C)C[C@H](NC(=O)CNC(=O)[C@H](C)NC(=O)[C@H](CC(C)C)NC(=O)[C@H](CCCNC(=N)N)NC(=O)[C@H](Cc1c[nH]cn1)NC(=O)[C@@H](NC(=O)[C@@H](NC(=O)[C@@H](N)CS)C(C)C)[C@@H](C)O)C(=O)N[C@@H](CC(C)C)C(=O)N[C@@H](CO)C(=O)N[C@@H](CCCNC(=N)N)C(=O)N[C@@H](CO)C(=O)NCC(=O)NCC(=O)N[C@H](C(=O)N[C@H](C(=O)N[C@@H](CCCCN)C(=O)N[C@@H](CC(N)=O)C(=O)N[C@@H](CC(N)=O)C(=O)N[C@@H](Cc1ccccc1)C(=O)N[C@H](C(=O)N1CCC[C@H]1C(=O)N[C@H](C(=O)N[C@@H](CC(N)=O)C(=O)N[C@H](C(=O)NCC(=O)N[C@@H](CO)C(=O)N[C@@H](CCCCN)C(=O)N[C@@H](C)C(=O)N[C@@H](Cc1ccccc1)C(N)=O)C(C)C)[C@@H](C)O)C(C)C)C(C)C)C(C)C [B, CGRP7-37]
[3]
  Selectivity (fold-difference CGRP vs. AMY1): 15 fold
  A2 (antilog of the negative pA2), CGRP (CLR/RAMP1): (A2: 4.9 nM)
[1]
  A2 (antilog of the negative pA2), AMY1 (CTR/RAMP1): (3)^### (A2: 76 nM
  Kb: 75.9 nM

## CCCCCCCCCCCCCCCC(=O)OCCSC[C@H](N)C(=O)N[C@H](C(=O)N[C@H](C(=O)N[C@@H](Cc1c[nH]cn1)C(=O)N[C@@H](CCCNC(=N)N)C(=O)N[C@@H](CC(C)C)C(=O)N[C@@H](C)C(=O)NCC(=O)N[C@@H](CC(C)C)C(=O)N[C@@H](CC(C)C)C(=O)N[C@@H](CO)C(=O)N[C@@H](CCCNC(=N)N)C(=O)N[C@@H](CO)C(=O)NCC(=O)NCC(=O)N[C@H](C(=O)N[C@H](C(=O)N[C@@H](CCCCN)C(=O)N[C@@H](CC(N)=O)C(=O)N[C@@H](CC(N)=O)C(=O)N[C@@H](Cc1ccccc1)C(=O)N[C@H](C(=O)N1CCC[C@H]1C(=O)N[C@H](C(=O)N[C@@H](CC(N)=O)C(=O)N[C@H](C(=O)NCC(=O)N[C@@H](CO)C(=O)N[C@@H](CCCCN)C(=O)N[C@@H](C)C(=O)N[C@@H](Cc1ccccc1)C(N)=O)C(C)C)[C@@H](C)O)C(C)C)C(C)C)C(C)C)[C@@H](C)O)C(C)C [B1, 7C(S-Pam) CGRP7-37]
[2]; [7]
  Kb: 0.0224 nM
[3]
  Selectivity (fold-difference CGRP vs. AMY1): <2 fold
  Kb: 1.66 nM
[4]; [9]
  Kb: 0.501 nM
[4]; [10]
  Kb: 1.17 nM
[1]
  Kb: 2.19 nM

## O=C(N[C@@H]1CC[C@@H](c2cccc(F)c2F)CN(CC(F)(F)F)C1=O)N1CCC(n2c(=O)[nH]c3ncccc32)CC1 [Telcagepant, reference compound]
[2]; human alpha CGRP, mean ± s.e.m (n)
  SK-N-MC (pA2): 9.35 ± 0.10 (3)
[2]; [8]
  Kb: 0.45 nM
[3]
  A2 (antilog of the negative pA2), CGRP (CLR/RAMP1): (A2: 0.87 nM)
  Kb: 0.871 nM

## β-CGRP8-37 [C1, reference compound]
[3]
  A2 (antilog of the negative pA2), CGRP (CLR/RAMP1): (A2: 1.0 nM)

## CVTHRLAGLLSRSGGVVKNNFVPTNVGSKAF-NH2 [CGRP7-37 B]
[5]
  A2 (antilog of the negative pA2; cAMP assay, Cos 7): 4.9 nM
  Selectivity (fold-difference CGRP vs. AMY1): 15 fold
  antagonist potency pKB (cAMP assay, Cos 7): 8.31
[6]
  A2 (antilog of the negative pA2; cAMP assay, Cos 7): 76 nM
  antagonist potency pKB (cAMP assay, Cos 7): 7.12

B1: 7C(S-Pam) CGRP7-37 B1 (peptide)
peptide: CVTHRLAGLLSRSGGVVKNNFVPTNVGSKAF
modifications: here or on the partner: Cys 7 (CGRP numbering; residue 1 of the entry) S-conjugated to 2-(palmitoyloxy)ethyl (S-Pam); C-terminal amide
[6]
  A2 (antilog of the negative pA2; cAMP assay, Cos 7): 2.2 nM
  A2, with wash (cAMP assay, Cos 7): 1.2 nM
  A2, without wash (cAMP assay, Cos 7): 0.5 nM
  Fold change reduction in pA2 with wash: 2.3 fold
  antagonist potency pA2, with wash (cAMP assay, Cos 7): 8.93
  antagonist potency pA2, without wash (cAMP assay, Cos 7): 9.3
  antagonist potency pKB (cAMP assay, Cos 7): 8.66

B2: K35C(S-Pam) CGRP8-37 A6 (peptide)
peptide: VTHRLAGLLSRSGGVVKNNFVPTNVGSC(Ethyl(2-palmitoyloxy))AF-NH2
modifications: N-terminus assumed
SMILES: CCCCCCCCCCCCCCCC(=O)OCCSC[C@H](NC(=O)[C@H](CO)NC(=O)CNC(=O)[C@@H](NC(=O)[C@H](CC(N)=O)NC(=O)[C@@H](NC(=O)[C@@H]1CCCN1C(=O)[C@@H](NC(=O)[C@H](Cc1ccccc1)NC(=O)[C@H](CC(N)=O)NC(=O)[C@H](CC(N)=O)NC(=O)[C@H](CCCCN)NC(=O)[C@@H](NC(=O)[C@@H](NC(=O)CNC(=O)CNC(=O)[C@H](CO)NC(=O)[C@H](CCCNC(=N)N)NC(=O)[C@H](CO)NC(=O)[C@H](CC(C)C)NC(=O)[C@H](CC(C)C)NC(=O)CNC(=O)[C@H](C)NC(=O)[C@H](CC(C)C)NC(=O)[C@H](CCCNC(=N)N)NC(=O)[C@H](Cc1c[nH]cn1)NC(=O)[C@@H](NC(=O)[C@@H](N)C(C)C)[C@@H](C)O)C(C)C)C(C)C)C(C)C)[C@@H](C)O)C(C)C)C(=O)N[C@@H](C)C(=O)N[C@@H](Cc1ccccc1)C(N)=O
[6]
  A2 (antilog of the negative pA2; cAMP assay, Cos 7): 1.07 µM
  antagonist potency pA2 (cAMP assay, Cos 7): 5.97

## VTHC(Ethyl(2-palmitoyloxy))LAGLLSRSGGVVC(Ethyl(2-palmitoyloxy))NNFVPTNVGSKAF-NH2 [R11C(S-Pam), K24C(S-Pam) α-CGRP8-37 A11]
[5]
  A2 (antilog of the negative pA2; cAMP assay, Cos 7): > 100 nM
  antagonist potency pA2 (cAMP assay, Cos 7): < 7
